According to patent publication USRE47141E1, “Methods of treating fibrosis, cancer and vascular injuries” (EWHA University—Industry Collaboration Foundation, priority 2010, dated 2018):
pIC50: −log10 of the molar value.

molecular target: ALK5 (Homo sapiens (Human), UniProt P36897); assay: Cell-free assay for inhibition of ALK5 kinase phosphorylation; assay type: biochemical; conditions: read-out: IC50 on ALK5 kinase phosphorylation
Sequence (P36897 34-503): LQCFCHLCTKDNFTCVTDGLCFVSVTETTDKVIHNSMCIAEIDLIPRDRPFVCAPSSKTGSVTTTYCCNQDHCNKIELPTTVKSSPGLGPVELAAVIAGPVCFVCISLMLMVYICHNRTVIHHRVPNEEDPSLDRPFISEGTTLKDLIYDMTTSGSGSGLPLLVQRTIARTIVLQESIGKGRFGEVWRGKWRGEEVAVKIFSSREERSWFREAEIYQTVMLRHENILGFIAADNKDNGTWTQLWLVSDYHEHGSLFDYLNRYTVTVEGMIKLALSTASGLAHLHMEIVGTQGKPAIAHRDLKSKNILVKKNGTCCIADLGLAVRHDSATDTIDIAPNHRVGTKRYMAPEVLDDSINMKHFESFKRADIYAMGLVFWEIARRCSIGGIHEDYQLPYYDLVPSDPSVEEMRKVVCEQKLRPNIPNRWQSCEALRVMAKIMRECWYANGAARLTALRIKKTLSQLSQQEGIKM
Procedure: ALK5 protein was expressed in Sf9 insect cells as human recombinant GST-fusion protein using the baculovirus expression system. Expressed protein was purified by affinity chromatography using GSH-agarose (Sigma-Aldrich). Kinase assay was performed in 96-well FlashPlates™ from Perkin Elmer (Boston, Mass., USA) in a 50 μL reaction volume. The reaction cocktail was pipetted in four steps in the following order: 20 μL of assay buffer (standard buffer), 5 μL of ATP solution in H2O, 5 μL of each test compounds of formula (I) in 10% DMSO, 10 μL of GSK3 (14-27) (200 ng)/10 μL of ALK5 solution (1 ng) (premixed). The reaction cocktail contained 60 mM HEPES-NaOH, pH 7.5, 3 mM MgCl2, 3 mM MnCl2, 3 Na3VO4, 1.2 mM DTT, 50 μg/mL PEG20000, 1 μM [γ-^33P]-ATP (approximately 2.5×10^5 cpm per well), 200 ng/10 μL GSK3 (14-27), and 1 ng/10 μL ALK5. The reaction cocktail was incubated at 30° C. for 60 min. The reaction was stopped with 50 μL of 2% (v/v) H3PO4, and plates were aspirated and washed two times with 200 μL 0.9% (w/v) NaCl. Assay was performed with a BeckmanCoulter Biomek 2000 robotic system. Incorporation of ^33Pi (counting of “cpm”) was determined with a microplate scintillation counter (Microbeta, Wallac).

Row | Structure (SMILES) | pIC50
1 | Cc1cccc(-c2[nH]c(CNc3ccccc3)nc2-c2ccc3ncnn3c2)n1 [Example 1, N-((4-([1,2,4]triazolo[1,5-a]pyridin-6-yl)-5-(6-methylpyridin-2-yl)-1H-imidazol-2-yl)methyl)aniline] | 7.88
2 | Cc1cccc(-c2[nH]c(CNc3cccc(F)c3)nc2-c2ccc3ncnn3c2)n1 [Example 5, N-((4-([1,2,4]triazolo[1,5-a]pyridin-6-yl)-5-(6-methylpyridin-2-yl)-1H-imidazol-2-yl)methyl)-3-fluoroaniline] | 8.03
3 | Cc1cccc(-c2[nH]c(CNc3ccc(F)cc3)nc2-c2ccc3ncnn3c2)n1 [Example 6, N-((4-([1,2,4]triazolo[1,5-a]pyridin-6-yl)-5-(6-methylpyridin-2-yl)-1H-imidazol-2-yl)methyl)-4-fluoroaniline] | 7.76
4 | Cc1cccc(-c2[nH]c(CNc3cccc(F)c3F)nc2-c2ccc3ncnn3c2)n1 [Example 7, N-((4-([1,2,4]triazolo[1,5-a]pyridin-6-yl)-5-(6-methylpyridin-2-yl)-1H-imidazol-2-yl)methyl)-2,3-difluoroaniline] | 8.05
5 | Cc1cccc(-c2[nH]c(CNc3ccc(F)c(F)c3)nc2-c2ccc3ncnn3c2)n1 [Example 8, N-((4-([1,2,4]triazolo[1,5-a]pyridin-6-yl)-5-(6-methylpyridin-2-yl)-1H-imidazol-2-yl)methyl)-3,4-difluoroaniline] | 8.01
6 | Cc1cccc(-c2[nH]c(CNc3cc(F)cc(F)c3)nc2-c2ccc3ncnn3c2)n1 [Example 9, N-((4-([1,2,4]triazolo[1,5-a]pyridin-6-yl)-5-(6-methylpyridin-2-yl)-1H-imidazol-2-yl)methyl)-3,5-difluoroaniline] | 8.19
7 | Cc1cccc(-c2[nH]c(CNc3ccccc3Cl)nc2-c2ccc3ncnn3c2)n1 [Example 10, N-((4-([1,2,4]triazolo[1,5-a]pyridin-6-yl)-5-(6-methylpyridin-2-yl)-1H-imidazol-2-yl)methyl)-2-chloroaniline] | 8.03
8 | Cc1cccc(-c2[nH]c(CNc3cccc(Cl)c3)nc2-c2ccc3ncnn3c2)n1 [Example 12, N-((4-([1,2,4]triazolo[1,5-a]pyridin-6-yl)-5-(6-methylpyridin-2-yl)-1H-imidazol-2-yl)methyl)-3-chloroaniline] | 8.21
9 | Cc1cccc(-c2[nH]c(CNc3ccc(Cl)cc3)nc2-c2ccc3ncnn3c2)n1 [Example 14, N-((4-([1,2,4]triazolo[1,5-a]pyridin-6-yl)-5-(6-methylpyridin-2-yl)-1H-imidazol-2-yl)methyl)-4-chloroaniline] | 7.97
10 | Cc1cccc(-c2[nH]c(CNc3cccc(Cl)c3Cl)nc2-c2ccc3ncnn3c2)n1 [Example 15, N-((4-([1,2,4]triazolo[1,5-a]pyridin-6-yl)-5-(6-methylpyridin-2-yl)-1H-imidazol-2-yl)methyl)-2,3-dichloroaniline] | 7.91
11 | Cc1cccc(-c2[nH]c(CNc3ccc(Cl)c(Cl)c3)nc2-c2ccc3ncnn3c2)n1 [Example 16, N-((4-([1,2,4]triazolo[1,5-a]pyridin-6-yl)-5-(6-methylpyridin-2-yl)-1H-imidazol-2-yl)methyl)-3,4-dichloroaniline] | 8.12
12 | Cc1cccc(-c2[nH]c(CNc3cc(Cl)cc(Cl)c3)nc2-c2ccc3ncnn3c2)n1 [Example 17, N-((4-([1,2,4]triazolo[1,5-a]pyridin-6-yl)-5-(6-methylpyridin-2-yl)-1H-imidazol-2-yl)methyl)-3,5-dichloroaniline] | 7.84
13 | Cc1cccc(-c2[nH]c(CNc3ccccc3Br)nc2-c2ccc3ncnn3c2)n1 [Example 18, N-((4-([1,2,4]triazolo[1,5-a]pyridin-6-yl)-5-(6-methylpyridin-2-yl)-1H-imidazol-2-yl)methyl)-2-bromoaniline] | 8.18
14 | Cc1cccc(-c2[nH]c(CNc3cccc(Br)c3)nc2-c2ccc3ncnn3c2)n1 [Example 20, N-((4-([1,2,4]triazolo[1,5-a]pyridin-6-yl)-5-(6-methylpyridin-2-yl)-1H-imidazol-2-yl)methyl)-3-bromoaniline] | 8.34
15 | Cc1cccc(-c2[nH]c(CNc3ccc(Br)cc3)nc2-c2ccc3ncnn3c2)n1 [Example 22, N-((4-([1,2,4]triazolo[1,5-a]pyridin-6-yl)-5-(6-methylpyridin-2-yl)-1H-imidazol-2-yl)methyl)-4-bromoaniline] | 7.77
16 | Cc1cccc(-c2[nH]c(CNc3ccccc3C)nc2-c2ccc3ncnn3c2)n1 [Example 23, N-((4-([1,2,4]triazolo[1,5-a]pyridin-6-yl)-5-(6-methylpyridin-2-yl)-1H-imidazol-2-yl)methyl)-2-methylaniline] | 7.86
17 | Cc1cccc(NCc2nc(-c3ccc4ncnn4c3)c(-c3cccc(C)n3)[nH]2)c1 [Example 24, N-((4-([1,2,4]triazolo[1,5-a]pyridin-6-yl)-5-(6-methylpyridin-2-yl)-1H-imidazol-2-yl)methyl)-3-methylaniline] | 8.04
18 | Cc1ccc(NCc2nc(-c3ccc4ncnn4c3)c(-c3cccc(C)n3)[nH]2)cc1 [Example 26, N-((4-([1,2,4]triazolo[1,5-a]pyridin-6-yl)-5-(6-methylpyridin-2-yl)-1H-imidazol-2-yl)methyl)-4-methylaniline] | 7.81

Row | Structure (SMILES) | pIC50
19 | Cc1cccc(-c2[nH]c(CNc3cccc(C)c3C)nc2-c2ccc3ncnn3c2)n1 [Example 27, N-((4-([1,2,4]triazolo[1,5-a]pyridin-6-yl)-5-(6-methylpyridin-2-yl)-1H-imidazol-2-yl)methyl)-2,3-dimethylaniline] | 7.74
20 | Cc1cccc(-c2[nH]c(CNc3ccc(C)c(C)c3)nc2-c2ccc3ncnn3c2)n1 [Example 28, N-((4-([1,2,4]triazolo[1,5-a]pyridin-6-yl)-5-(6-methylpyridin-2-yl)-1H-imidazol-2-yl)methyl)-3,4-dimethylaniline] | 7.76
21 | Cc1cc(C)cc(NCc2nc(-c3ccc4ncnn4c3)c(-c3cccc(C)n3)[nH]2)c1 [Example 29, N-((4-([1,2,4]triazolo[1,5-a]pyridin-6-yl)-5-(6-methylpyridin-2-yl)-1H-imidazol-2-yl)methyl)-3,5-dimethylaniline] | 7.84
22 | CCc1ccccc1NCc1nc(-c2ccc3ncnn3c2)c(-c2cccc(C)n2)[nH]1 [Example 30, N-((4-([1,2,4]triazolo[1,5-a]pyridin-6-yl)-5-(6-methylpyridin-2-yl)-1H-imidazol-2-yl)methyl)-2-ethylaniline] | 7.97
23 | CCc1cccc(NCc2nc(-c3ccc4ncnn4c3)c(-c3cccc(C)n3)[nH]2)c1 [Example 31, N-((4-([1,2,4]triazolo[1,5-a]pyridin-6-yl)-5-(6-methylpyridin-2-yl)-1H-imidazol-2-yl)methyl)-3-ethylaniline] | 8.10
24 | Cc1cccc(-c2[nH]c(CNc3ccccc3C(C)C)nc2-c2ccc3ncnn3c2)n1 [Example 33, N-((4-([1,2,4]triazolo[1,5-a]pyridin-6-yl)-5-(6-methylpyridin-2-yl)-1H-imidazol-2-yl)methyl)-2-isopropylaniline] | 7.85
25 | Cc1cccc(-c2[nH]c(CNc3cccc(C(C)C)c3)nc2-c2ccc3ncnn3c2)n1 [Example 34, N-((4-([1,2,4]triazolo[1,5-a]pyridin-6-yl)-5-(6-methylpyridin-2-yl)-1H-imidazol-2-yl)methyl)-3-isopropylaniline] | 7.79
26 | Cc1cccc(-c2[nH]c(CNc3ccc(C(C)C)cc3)nc2-c2ccc3ncnn3c2)n1 [Example 35, N-((4-([1,2,4]triazolo[1,5-a]pyridin-6-yl)-5-(6-methylpyridin-2-yl)-1H-imidazol-2-yl)methyl)-4-isopropylaniline] | 7.34
27 | C=Cc1ccccc1NCc1nc(-c2ccc3ncnn3c2)c(-c2cccc(C)n2)[nH]1 [Example 36, N-((4-([1,2,4]triazolo[1,5-a]pyridin-6-yl)-5-(6-methylpyridin-2-yl)-1H-imidazol-2-yl)methyl)-2-vinylaniline] | 7.85
28 | C=Cc1cccc(NCc2nc(-c3ccc4ncnn4c3)c(-c3cccc(C)n3)[nH]2)c1 [Example 37, N-((4-([1,2,4]triazolo[1,5-a]pyridin-6-yl)-5-(6-methylpyridin-2-yl)-1H-imidazol-2-yl)methyl)-3-vinylaniline] | 7.92
29 | C=Cc1ccc(NCc2nc(-c3ccc4ncnn4c3)c(-c3cccc(C)n3)[nH]2)cc1 [Example 40, N-((4-([1,2,4]triazolo[1,5-a]pyridin-6-yl)-5-(6-methylpyridin-2-yl)-1H-imidazol-2-yl)methyl)-4-vinylaniline] | 7.53
30 | COc1ccccc1NCc1nc(-c2ccc3ncnn3c2)c(-c2cccc(C)n2)[nH]1 [Example 42, N-((4-([1,2,4]triazolo[1,5-a]pyridin-6-yl)-5-(6-methylpyridin-2-yl)-1H-imidazol-2-yl)methyl)-2-methoxyaniline] | 7.84
31 | COc1cccc(NCc2nc(-c3ccc4ncnn4c3)c(-c3cccc(C)n3)[nH]2)c1 [Example 43, N-((4-([1,2,4]triazolo[1,5-a]pyridin-6-yl)-5-(6-methylpyridin-2-yl)-1H-imidazol-2-yl)methyl)-3-methoxyaniline] | 7.84
32 | COc1ccc(NCc2nc(-c3ccc4ncnn4c3)c(-c3cccc(C)n3)[nH]2)cc1 [Example 44, N-((4-([1,2,4]triazolo[1,5-a]pyridin-6-yl)-5-(6-methylpyridin-2-yl)-1H-imidazol-2-yl)methyl)-4-methoxyaniline] | 7.32
33 | COc1cccc(NCc2nc(-c3ccc4ncnn4c3)c(-c3cccc(C)n3)[nH]2)c1OC [Example 45, N-((4-([1,2,4]triazolo[1,5-a]pyridin-6-yl)-5-(6-methylpyridin-2-yl)-1H-imidazol-2-yl)methyl)-2,3-dimethoxyaniline] | 7.24
34 | COc1ccc(NCc2nc(-c3ccc4ncnn4c3)c(-c3cccc(C)n3)[nH]2)cc1OC [Example 46, N-((4-([1,2,4]triazolo[1,5-a]pyridin-6-yl)-5-(6-methylpyridin-2-yl)-1H-imidazol-2-yl)methyl)-3,4-dimethoxyaniline] | 7.35
35 | COc1cc(NCc2nc(-c3ccc4ncnn4c3)c(-c3cccc(C)n3)[nH]2)cc(OC)c1 [Example 47, N-((4-([1,2,4]triazolo[1,5-a]pyridin-6-yl)-5-(6-methylpyridin-2-yl)-1H-imidazol-2-yl)methyl)-3,5-dimethoxyaniline] | 7.84
